Results reported in patent publication US10059674B2, “Design, synthesis, and biological evaluation of 1-methyl-1, 4-dihyrdoindeno[1,2-C]pyrazole analogues as potential anticaner agents targeting tubulin colchicine binding site” (ACT PHARMA CO., LTD., priority 2016, dated 2018).
Like-named read-outs stand apart in the source and are kept apart here.

Assays:
[1] = In vivo pharmacokinetic test, drug concentration in blood plasma by LC-MS/MS; design: species or system SD rats; details: for Drug concentration in blood plasma / concentration at 0.25 h / concentration at 0.5 h / concentration at 1 h / concentration at 8 h / concentration at 24 h / concentration at 0.08 h / concentration at 2 h / concentration at 4 h: SD rats; for Drug concentration in blood plasma / concentration at 24 h: 24 h; for concentration at 0.25 h / concentration at 0.5 h / concentration at 1 h / concentration at 8 h / concentration at 24 h / concentration at 0.08 h / concentration at 2 h / concentration at 4 h / AUC(0-t) / Cmax / AUC(0-inf) / clearance / MRT inf / Vd / Vd/F: SD; for concentration at 0.25 h / concentration at 0.5 h / concentration at 1 h / concentration at 8 h / concentration at 24 h / concentration at 0.08 h / concentration at 2 h / concentration at 4 h / AUC(0-t) / Cmax / AUC(0-inf) / clearance / MRT inf / Vd / Vd/F / Tmax: rat, plasma; for HL_Lambda_z / Cl—F—pred / F / AUC(0-t) / Cmax / AUC(0-inf) / clearance / MRT inf / Vd / Vd/F / Tmax: male SD rats; for AUC(0-inf): read-out: AUCINF—pred; for clearance: read-out: Cl—pred (converted); for MRT inf: read-out: MRTINF—pred; for Vd: read-out: Vz—pred; for Vd/F: read-out: Vz—F—pred
Description: 2. Test animal: SD rats, which are 284-304 g before the test, and bought from Shanghai Xipuer-Bikai laboratory animal Co., Ltd. with production license No. SCXK (Hu) 2013-0016, and laboratory animal certificate Nos. 2008001658223 and 2008001658296.
2.85 mg of compound LL-01 is weighed, and then put into a glass bottle; 0.687 mL of DMSO is added into the glass bottle, and ultrasonic treatment is carried out for 2 min; next, 2.062 mL of Solutol HS 15 is added thereto, and ultrasonic treatment is carried out for 4 min; and then 10.995 mL of PBS is added thereto, and ultrasonic treatment is carried out for 8 min after eddying. This test substance is numbered 20160324-RW-01, 12.74 mg of compound LL-01 is weighed, and then put into a glass bottle; 0.614 mL of DMSO is added into the glass bottle, and ultrasonic treatment is carried out for 2 min; next, 1.843 mL of Solutol HS 15 is added thereto, and ultrasonic treatment is carried out for 4 min; and then 9.830 mL of PBS is added thereto, and ultrasonic treatment is carried out for 8 min after eddying. This test substance is numbered 20160324-RW-02,
The dosage of intravenous administration is 1 mg/kg, while the dosage of oral administration is 10 mg/kg. A night of fasting is required before administration, and feeding should be carried out 4 hours later after administration.
Blood is collected (about 150-200 uL) at every time points of 0.083 (only vein), 0.25, 0.5, 1, 2, 4, 8, and 24 hours after administration through orbital venous plexus puncture into EDTA-K2 (20%, and 2 μL) anticoagulant tubes, respectively; the blood samples are centrifuged 8 min at 6000 rpm in 1 h (placed on wet ice before being centrifuged), and the supernatant, namely blood plasma is put into −20° C. low-temperature conservation for LC-MS/MS analysis later.
The content of compound LL-01 in SD rat blood plasma is detected by use of LC-MS/MS method.
Computer program Microsoft Office Excel 2007 (Microsoft, USA) is used for data processing, and drawing. A statistical moment method of WinNolin 6.4 processing software is used to calculate pharmacokinetic parameters.

[2] = rat, microsomes, 1 µM, pH 7.47
[3] = po, 10 mg/kg, oral 10 mg/kg, Mean
[4] = po, 10 mg/kg, oral 10 mg/kg, animal 201M
[5] = po, 10 mg/kg, oral 10 mg/kg, animal 202M
[6] = po, 10 mg/kg, oral 10 mg/kg, animal 203M
[7] = single intravenous 1 mg/kg, animal 101M
[8] = single oral 10 mg/kg, animal 201M
[9] = single oral 10 mg/kg, animal 202M
[10] = single oral 10 mg/kg, animal 203M
[11] = male, iv, 1 mg/kg, intravenous 1 mg/kg, Mean
[12] = male, iv, 1 mg/kg, intravenous 1 mg/kg, animal 101M
[13] = male, iv, 1 mg/kg, intravenous 1 mg/kg, animal 102M
[14] = male, iv, 1 mg/kg, intravenous 1 mg/kg, animal 103M
[15] = male, iv, 1 mg/kg, single intravenous 1 mg/kg, Mean
[16] = male, iv, 1 mg/kg, single intravenous 1 mg/kg, animal 101M
[17] = male, iv, 1 mg/kg, single intravenous 1 mg/kg, animal 102M
[18] = male, iv, 1 mg/kg, single intravenous 1 mg/kg, animal 103M
[19] = male, po, 10 mg/kg, oral 10 mg/kg, Mean
[20] = male, po, 10 mg/kg, oral 10 mg/kg, animal 201M
[21] = male, po, 10 mg/kg, oral 10 mg/kg, animal 202M
[22] = male, po, 10 mg/kg, oral 10 mg/kg, animal 203M
[23] = male, po, 10 mg/kg, single oral 10 mg/kg, Mean
[24] = male, po, 10 mg/kg, single oral 10 mg/kg, animal 201M
[25] = male, po, 10 mg/kg, single oral 10 mg/kg, animal 202M
[26] = male, po, 10 mg/kg, single oral 10 mg/kg, animal 203M

- Drug concentration in blood plasma ([1]; intravenous 1 mg/kg, animal 101M): BLQ
- Drug concentration in blood plasma ([1]; intravenous 1 mg/kg, animal 102M): BLQ
- Drug concentration in blood plasma ([1]; intravenous 1 mg/kg, animal 103M): BLQ
- concentration at 0.25 h [1, 3]: 280 ng/mL
- concentration at 0.25 h [1, 4]: 159 ng/mL
- concentration at 0.25 h [1, 5]: 466 ng/mL
- concentration at 0.25 h [1, 6]: 216 ng/mL
- concentration at 0.5 h [1, 3]: 558 ng/mL
- concentration at 0.5 h [1, 4]: 374 ng/mL
- concentration at 0.5 h [1, 5]: 959 ng/mL
- concentration at 0.5 h [1, 6]: 339 ng/mL
- concentration at 1 h [1, 3]: 917 ng/mL
- concentration at 1 h [1, 4]: 869 ng/mL
- concentration at 1 h [1, 5]: 1100 ng/mL
- concentration at 1 h [1, 6]: 778 ng/mL
- concentration at 8 h [1, 3]: 604 ng/mL
- concentration at 8 h [1, 5]: 916 ng/mL
- concentration at 8 h [1, 6]: 446 ng/mL
- concentration at 24 h [1, 3]: 26.9 ng/mL
- concentration at 24 h [1, 4]: 46.8 ng/mL
- concentration at 24 h [1, 5]: 17.4 ng/mL
- concentration at 24 h [1, 6]: 16.6 ng/mL
- HL_Lambda_z ([1]; single intravenous 1 mg/kg, Mean): 1.00 h
- HL_Lambda_z [1, 7]: 1.06 h
- HL_Lambda_z ([1]; single intravenous 1 mg/kg, animal 102M): 1.00 h
- HL_Lambda_z ([1]; single intravenous 1 mg/kg, animal 103M): 0.94 h
- Cl—F—pred ([1]; single oral 10 mg/kg, Mean): 14.3 mL/min/kg
- F ([1]; single oral 10 mg/kg, Mean): 41.02%
- HL_Lambda_z ([1]; single oral 10 mg/kg, Mean): 3.60 h
- Cl—F—pred [1, 8]: 15.2 mL/min/kg
- F [1, 8]: 35.12%
- HL_Lambda_z [1, 8]: 4.35 h
- Cl—F—pred [1, 9]: 9.33 mL/min/kg
- F [1, 9]: 58.28%
- HL_Lambda_z [1, 9]: 2.95 h
- Cl—F—pred [1, 10]: 18.3 mL/min/kg
- F [1, 10]: 29.66%
- HL_Lambda_z [1, 10]: 3.50 h
- concentration at 0.08 h [1, 11]: 2600 ng/mL
- concentration at 0.08 h [1, 12]: 2720 ng/mL
- concentration at 0.08 h [1, 13]: 2400 ng/mL
- concentration at 0.08 h [1, 14]: 2690 ng/mL
- concentration at 0.25 h [1, 11]: 1950 ng/mL
- concentration at 0.25 h [1, 12]: 2020 ng/mL
- concentration at 0.25 h [1, 13]: 1920 ng/mL
- concentration at 0.25 h [1, 14]: 1910 ng/mL
- concentration at 0.5 h [1, 11]: 1630 ng/mL
- concentration at 0.5 h [1, 12]: 1760 ng/mL
- concentration at 0.5 h [1, 13]: 1390 ng/mL
- concentration at 0.5 h [1, 14]: 1720 ng/mL
- concentration at 1 h [1, 11]: 884 ng/mL
- concentration at 1 h [1, 12]: 876 ng/mL
- concentration at 1 h [1, 13]: 842 ng/mL
- concentration at 1 h [1, 14]: 934 ng/mL
- concentration at 2 h [1, 11]: 428 ng/mL
- concentration at 2 h [1, 12]: 398 ng/mL
- concentration at 2 h [1, 13]: 372 ng/mL
- concentration at 2 h [1, 14]: 512 ng/mL
- concentration at 4 h [1, 11]: 82.5 ng/mL
- concentration at 4 h [1, 12]: 87.6 ng/mL
- concentration at 4 h [1, 13]: 67.1 ng/mL
- concentration at 4 h [1, 14]: 92.8 ng/mL
- concentration at 8 h [1, 11]: 7.8 ng/mL
- concentration at 8 h [1, 12]: 8.6 ng/mL
- concentration at 8 h [1, 13]: 9.1 ng/mL
- concentration at 8 h [1, 14]: 5.6 ng/mL
- AUC(0-t) [1, 15]: 3030 ng·h/mL
- Cmax [1, 15]: 2600 ng/mL
- AUC(0-inf) [1, 15]: 3040 ng·h/mL
- clearance [1, 15]: 5.5 mL/min/kg
- MRT inf [1, 15]: 1.18 h
- Vd [1, 15]: 0.48 L/kg
- AUC(0-t) [1, 16]: 3090 ng·h/mL
- Cmax [1, 16]: 2720 ng/mL
- AUC(0-inf) [1, 16]: 3100 ng·h/mL
- clearance [1, 16]: 5.33 mL/min/kg
- MRT inf [1, 16]: 1.17 h
- Vd [1, 16]: 0.49 L/kg
- AUC(0-t) [1, 17]: 2740 ng·h/mL
- Cmax [1, 17]: 2400 ng/mL
- AUC(0-inf) [1, 17]: 2750 ng·h/mL
- clearance [1, 17]: 6 mL/min/kg
- MRT inf [1, 17]: 1.16 h
- Vd [1, 17]: 0.53 L/kg
- AUC(0-t) [1, 18]: 3270 ng·h/mL
- Cmax [1, 18]: 2690 ng/mL
- AUC(0-inf) [1, 18]: 3280 ng·h/mL
- clearance [1, 18]: 5 mL/min/kg
- MRT inf [1, 18]: 1.21 h
- Vd [1, 18]: 0.41 L/kg
- concentration at 2 h [1, 19]: 920 ng/mL
- concentration at 2 h [1, 20]: 675 ng/mL
- concentration at 2 h [1, 21]: 1280 ng/mL
- concentration at 2 h [1, 22]: 801 ng/mL
- concentration at 4 h [1, 19]: 1280 ng/mL
- concentration at 4 h [1, 20]: 1310 ng/mL
- concentration at 4 h [1, 21]: 1720 ng/mL
- concentration at 4 h [1, 22]: 814 ng/mL
- concentration at 8 h [1, 20]: 451 ng/mL
- AUC(0-t) [1, 23]: 12400 ng·h/mL
- Cmax [1, 23]: 1280 ng/mL
- AUC(0-inf) [1, 23]: 12600 ng·h/mL
- MRT inf [1, 23]: 6.14 h
- Vd/F [1, 23]: 4.57 L/kg
- AUC(0-t) [1, 24]: 10700 ng·h/mL
- Cmax [1, 24]: 1310 ng/mL
- AUC(0-inf) [1, 24]: 10900 ng·h/mL
- MRT inf [1, 24]: 6.58 h
- Vd/F [1, 24]: 5.74 L/kg
- AUC(0-t) [1, 25]: 17700 ng·h/mL
- Cmax [1, 25]: 1720 ng/mL
- AUC(0-inf) [1, 25]: 17800 ng·h/mL
- MRT inf [1, 25]: 5.87 h
- Vd/F [1, 25]: 2.4 L/kg
- AUC(0-t) [1, 26]: 9000 ng·h/mL
- Cmax [1, 26]: 814 ng/mL
- AUC(0-inf) [1, 26]: 9080 ng·h/mL
- MRT inf [1, 26]: 5.96 h
- Vd/F [1, 26]: 5.57 L/kg
- Tmax [1, 7]: 0.08 h
- Tmax [1, 8]: 4 h
- Remainder ([2]; 0 h): 100.00%
- Remainder ([2]; 10 min): 87.70%
- Remainder ([2]; 0.5 h): 68.13%
- Remainder ([2]; 1.5 h): 33.19%
Structure (SMILES): CCOc1cccc(Nc2nn(C)c3c2Cc2cc(OCC)c(OCC(N)=O)cc2-3)c1 [LL-01]
